From paper PMC6415679 (ChemMedChem, 2018)
“Also recorded” adds a separate entry of the source.

Assays:
human AC5 = human AC5 (Homo sapiens, UniProt O95622); assay type: cell-based
human AC1 = human AC1 (Homo sapiens, UniProt Q08828); assay type: cell-based; settings: for IC50: read-out: AC1 IC50
[1] = biological target: Bordetella pertussis adenylate cyclase toxin (ACT) (Bordetella pertussis, UniProt P0DKX7); assay: cell-based; assay type: cell-based; settings: read-out: IC50 (concentration causing a 50% decrease in ACT-induced cAMP accumulation)
Sequence of Bordetella pertussis adenylate cyclase toxin (ACT) (P0DKX7 whole entry, looked up): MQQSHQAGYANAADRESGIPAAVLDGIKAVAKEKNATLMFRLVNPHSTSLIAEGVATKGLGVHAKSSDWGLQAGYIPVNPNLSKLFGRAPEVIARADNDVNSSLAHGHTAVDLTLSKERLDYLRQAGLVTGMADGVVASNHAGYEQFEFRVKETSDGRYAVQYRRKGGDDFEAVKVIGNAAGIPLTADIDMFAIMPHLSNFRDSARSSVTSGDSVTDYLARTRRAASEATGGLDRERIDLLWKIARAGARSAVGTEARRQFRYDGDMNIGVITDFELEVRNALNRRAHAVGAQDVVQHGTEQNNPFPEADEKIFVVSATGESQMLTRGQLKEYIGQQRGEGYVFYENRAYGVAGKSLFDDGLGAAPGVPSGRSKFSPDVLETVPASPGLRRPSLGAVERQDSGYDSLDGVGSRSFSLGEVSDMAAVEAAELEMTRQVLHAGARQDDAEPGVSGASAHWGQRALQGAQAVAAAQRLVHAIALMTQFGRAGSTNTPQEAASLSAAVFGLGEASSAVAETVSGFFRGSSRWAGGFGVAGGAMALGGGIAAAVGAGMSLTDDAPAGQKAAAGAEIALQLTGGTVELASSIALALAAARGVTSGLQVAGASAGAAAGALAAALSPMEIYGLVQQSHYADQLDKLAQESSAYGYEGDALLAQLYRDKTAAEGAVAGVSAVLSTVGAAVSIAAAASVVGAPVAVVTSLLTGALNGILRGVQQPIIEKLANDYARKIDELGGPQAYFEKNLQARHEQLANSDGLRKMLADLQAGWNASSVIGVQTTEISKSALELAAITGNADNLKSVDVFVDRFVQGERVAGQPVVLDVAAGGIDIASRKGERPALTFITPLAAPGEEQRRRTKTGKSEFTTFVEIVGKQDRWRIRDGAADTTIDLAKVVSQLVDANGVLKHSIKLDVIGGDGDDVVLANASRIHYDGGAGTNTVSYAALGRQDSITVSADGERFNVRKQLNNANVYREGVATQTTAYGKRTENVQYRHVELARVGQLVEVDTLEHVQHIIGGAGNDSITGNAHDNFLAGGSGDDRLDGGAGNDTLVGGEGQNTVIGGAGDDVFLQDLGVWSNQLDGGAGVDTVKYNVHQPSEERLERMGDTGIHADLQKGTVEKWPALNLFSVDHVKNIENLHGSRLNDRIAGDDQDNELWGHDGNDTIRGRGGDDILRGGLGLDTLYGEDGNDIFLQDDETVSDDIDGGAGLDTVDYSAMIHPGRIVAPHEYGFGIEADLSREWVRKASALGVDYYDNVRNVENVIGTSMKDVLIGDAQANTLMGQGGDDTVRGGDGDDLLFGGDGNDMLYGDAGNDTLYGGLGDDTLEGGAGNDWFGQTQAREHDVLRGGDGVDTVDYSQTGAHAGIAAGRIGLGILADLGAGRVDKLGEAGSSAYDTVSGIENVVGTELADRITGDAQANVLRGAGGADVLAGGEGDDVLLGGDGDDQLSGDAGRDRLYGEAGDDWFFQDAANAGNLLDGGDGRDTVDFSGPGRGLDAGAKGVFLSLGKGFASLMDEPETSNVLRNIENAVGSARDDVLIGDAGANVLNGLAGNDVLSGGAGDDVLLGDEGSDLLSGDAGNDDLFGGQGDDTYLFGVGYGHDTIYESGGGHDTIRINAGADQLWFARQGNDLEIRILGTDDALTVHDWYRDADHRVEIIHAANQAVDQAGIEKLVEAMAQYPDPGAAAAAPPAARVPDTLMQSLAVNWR

human AC2 = human AC2 (Homo sapiens, UniProt Q08462); assay type: cell-based
Sequence of human AC2 (Q08462 whole entry): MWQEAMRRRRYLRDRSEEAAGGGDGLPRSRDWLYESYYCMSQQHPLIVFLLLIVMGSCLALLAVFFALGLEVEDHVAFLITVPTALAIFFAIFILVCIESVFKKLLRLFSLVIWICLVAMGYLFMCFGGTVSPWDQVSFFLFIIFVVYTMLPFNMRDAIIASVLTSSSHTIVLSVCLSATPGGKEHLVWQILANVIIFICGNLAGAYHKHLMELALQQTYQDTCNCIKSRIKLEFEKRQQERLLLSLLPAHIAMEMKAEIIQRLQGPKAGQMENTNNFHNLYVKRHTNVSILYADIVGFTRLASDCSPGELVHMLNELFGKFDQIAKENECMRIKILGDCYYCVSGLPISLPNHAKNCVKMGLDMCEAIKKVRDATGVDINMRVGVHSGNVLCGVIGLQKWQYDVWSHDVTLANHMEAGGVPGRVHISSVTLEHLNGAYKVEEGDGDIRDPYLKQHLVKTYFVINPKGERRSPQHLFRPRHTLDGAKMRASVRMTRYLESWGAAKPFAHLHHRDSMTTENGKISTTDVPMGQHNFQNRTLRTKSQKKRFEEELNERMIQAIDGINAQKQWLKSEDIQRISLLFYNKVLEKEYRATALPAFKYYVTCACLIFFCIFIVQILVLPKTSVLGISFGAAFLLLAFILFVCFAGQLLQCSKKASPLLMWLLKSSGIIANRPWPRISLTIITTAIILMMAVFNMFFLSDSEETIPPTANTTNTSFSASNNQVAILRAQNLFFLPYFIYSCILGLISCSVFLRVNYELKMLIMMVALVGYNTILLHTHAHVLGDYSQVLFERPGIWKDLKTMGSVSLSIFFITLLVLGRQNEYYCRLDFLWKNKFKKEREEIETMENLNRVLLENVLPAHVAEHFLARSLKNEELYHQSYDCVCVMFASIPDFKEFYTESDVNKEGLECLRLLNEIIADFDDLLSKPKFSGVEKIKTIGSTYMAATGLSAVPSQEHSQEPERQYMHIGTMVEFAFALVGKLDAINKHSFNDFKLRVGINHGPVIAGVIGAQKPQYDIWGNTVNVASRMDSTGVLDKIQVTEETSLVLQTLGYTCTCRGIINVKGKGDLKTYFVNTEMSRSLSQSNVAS

J774A.1 cells = settings: 10 µM

Sequence of human AC1 (Q08828 whole entry): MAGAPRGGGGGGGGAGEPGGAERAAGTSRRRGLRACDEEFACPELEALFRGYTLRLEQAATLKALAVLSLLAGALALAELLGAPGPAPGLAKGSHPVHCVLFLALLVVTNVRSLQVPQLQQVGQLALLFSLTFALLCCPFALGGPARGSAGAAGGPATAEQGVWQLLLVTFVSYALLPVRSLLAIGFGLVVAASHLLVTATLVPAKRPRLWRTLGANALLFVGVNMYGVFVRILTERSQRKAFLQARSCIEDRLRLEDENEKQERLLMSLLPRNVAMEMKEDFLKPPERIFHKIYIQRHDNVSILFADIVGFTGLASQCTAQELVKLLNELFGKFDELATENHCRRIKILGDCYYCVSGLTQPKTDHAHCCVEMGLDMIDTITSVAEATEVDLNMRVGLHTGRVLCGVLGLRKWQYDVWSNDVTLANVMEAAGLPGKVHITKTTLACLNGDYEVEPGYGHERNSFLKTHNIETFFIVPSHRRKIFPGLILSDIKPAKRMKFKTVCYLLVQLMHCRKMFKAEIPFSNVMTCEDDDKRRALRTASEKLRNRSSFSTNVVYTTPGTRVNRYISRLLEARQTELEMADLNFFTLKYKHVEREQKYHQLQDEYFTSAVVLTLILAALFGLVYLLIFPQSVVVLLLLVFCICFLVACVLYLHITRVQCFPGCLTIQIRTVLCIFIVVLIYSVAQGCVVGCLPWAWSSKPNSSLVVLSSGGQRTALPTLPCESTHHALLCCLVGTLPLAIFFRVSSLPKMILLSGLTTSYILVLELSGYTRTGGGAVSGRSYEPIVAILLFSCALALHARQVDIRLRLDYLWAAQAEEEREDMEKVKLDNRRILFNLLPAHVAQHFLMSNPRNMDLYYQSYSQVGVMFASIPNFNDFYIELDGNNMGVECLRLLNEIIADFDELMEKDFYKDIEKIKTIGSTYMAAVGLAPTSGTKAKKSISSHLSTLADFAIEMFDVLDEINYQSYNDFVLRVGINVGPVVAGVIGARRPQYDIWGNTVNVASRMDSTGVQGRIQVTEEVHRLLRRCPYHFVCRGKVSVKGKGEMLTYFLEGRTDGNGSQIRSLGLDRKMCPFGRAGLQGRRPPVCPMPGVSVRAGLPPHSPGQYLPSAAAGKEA

`CC(C)OC(=O)[C@H](Cc1ccccc1)NP(=O)(COCCn1cnc2c(N)ccnc21)N[C@@H](Cc1ccccc1)C(=O)OC(C)C` [Compound 2a, Bis(L-phenylalanineisopropyl ester) prodrug of 9-[2-(phosphorylmethoxy)ethyl]-1-deazaadenine] was tested, and the “Response of Control (%) AC5” value (human AC5) was 98 ± 4%, the “Response of Control (%) AC1” value (human AC1) was 88 ± 6% and the IC50 [1] was > 10 µM. For the same compound, the “Response of Control (%) AC2” value (human AC2) was 149 ± 15%.
For `CC(C)OC(=O)C(Cc1ccccc1)NP(=O)(COCCn1cnc2c(N)nccc21)NC(Cc1ccccc1)C(=O)OC(C)C` [Compound 2b, Bis(L-phenylalanineisopropyl ester) prodrug of 9-[2-(phosphorylmethoxy)ethyl]-3-deazaadenine], the “Response of Control (%) AC5” value (human AC5) was 77 ± 5%, the “Response of Control (%) AC1” value (human AC1) was 88 ± 15% and the IC50 [1] was > 10 µM. The “Response of Control (%) AC2” value (human AC2) was 107 ± 26%.
With `CC(C)OC(=O)[C@H](Cc1ccccc1)NP(=O)(COCCn1ccc2c(N)ncnc21)N[C@@H](Cc1ccccc1)C(=O)OC(C)C` [Compound 6a, Bis(L-phenylalanineisopropyl ester) prodrug of 9-[2-(phosphorylmethoxy)ethyl]-7-deazaadenine] the “Response of Control (%) AC5” value (human AC5) was 139 ± 14%, the “Response of Control (%) AC1” value (human AC1) was 66 ± 15% and the IC50 [1] was 0.051 ± 0.008 µM. The “Effect on AC2 in words” value (human AC2) was “potentiate”, the “Response of Control (%) AC2” value (human AC2) was 207 ± 39% and the “Viability (%)” value (J774A.1 cells) was 120%.
With `CC(C)OC(=O)[C@H](Cc1ccccc1)NP(=O)(COCCn1cc(F)c2c(N)ncnc21)N[C@@H](Cc1ccccc1)C(=O)OC(C)C` [Compound 6b, Bis(L-phenylalanineisopropyl ester) prodrug of 9-[2-(phosphorylmethoxy)ethyl]-7-fluoro-7-deazaadenine] the “Response of Control (%) AC5” value (human AC5) was 108 ± 8%, the “Effect on AC1 in words” value (human AC1) was “selectively inhibit AC1” and the “Response of Control (%) AC1” value (human AC1) was 48 ± 12%. The IC50 [1] was 0.134 ± 0.019 µM, the “Response of Control (%) AC2” value (human AC2) was 176 ± 16% and the “Viability (%)” value (J774A.1 cells) was 90%.
With `CC(C)OC(=O)[C@H](Cc1ccccc1)NP(=O)(COCCn1cc(Cl)c2c(N)ncnc21)N[C@@H](Cc1ccccc1)C(=O)OC(C)C` [Compound 6c, Bis(L-phenylalanineisopropyl ester) prodrug of 9-[2-(phosphorylmethoxy)ethyl]-7-chloro-7-deazaadenine] the “Effect on AC5 in words” value (human AC5) was “no AC2 and AC5 inhibition was observed”, the “Response of Control (%) AC5” value (human AC5) was 182 ± 10% and the “AC1 % Response” value (human AC1) was 22 ±5%. The “Effect on AC1 in words” value (human AC1) was “selectively inhibit AC1”, the “Response of Control (%) AC1” value (human AC1) was 23 ± 4% and the IC50 (human AC1) was 5.6 ± 1.7 µM. For the same compound, the IC50 [1] was 1.27 ± 0.222 µM, the “AC2 % Response” value (human AC2) was 143 ±21% and the “Effect on AC2 in words” value (human AC2) was “potentiate; also recorded: no AC2 and AC5 inhibition was observed”. For the same compound, the “Response of Control (%) AC2” value (human AC2) was 236 ± 39% and the “Viability (%)” value (J774A.1 cells) was 89%.
For `CC(C)OC(=O)[C@H](Cc1ccccc1)NP(=O)(COCCn1cc(Br)c2c(N)ncnc21)N[C@@H](Cc1ccccc1)C(=O)OC(C)C` [Compound 6d, Bis(L-phenylalanineisopropyl ester) prodrug of 9-[2-(phosphorylmethoxy)ethyl]-7-bromo-7-deazaadenine], the “Effect on AC5 in words” value (human AC5) was “potentiate; also recorded: no AC2 and AC5 inhibition was observed”, the “Response of Control (%) AC5” value (human AC5) was 215 ± 17% and the “AC1 % Response” value (human AC1) was 22 ±4%. The “Effect on AC1 in words” value (human AC1) was “selectively inhibit AC1”, the “Response of Control (%) AC1” value (human AC1) was 24 ± 5% and the IC50 (human AC1) was 4.3 ± 0.5 µM. The IC50 [1] was 3.78 ± 0.36 µM, the “AC2 % Response” value (human AC2) was 142 ±11% and the “Effect on AC2 in words” value (human AC2) was “potentiate; also recorded: no AC2 and AC5 inhibition was observed”. For the same compound, the “Response of Control (%) AC2” value (human AC2) was 238 ± 49% and the “Viability (%)” value (J774A.1 cells) was 105%.
`CC(C)OC(=O)C(Cc1ccccc1)NP(=O)(COCCn1cc(I)c2c(N)ncnc21)NC(Cc1ccccc1)C(=O)OC(C)C` [Compound 6e, Bis(L-phenylalanineisopropyl ester) prodrug of 9-[2-(phosphorylmethoxy)ethyl]-7-iodo-7-deazaadenine] was tested, and the “Effect on AC5 in words” value (human AC5) was “potentiate; also recorded: no AC2 and AC5 inhibition was observed”, the “Response of Control (%) AC5” value (human AC5) was 229 ± 33% and the “AC1 % Response” value (human AC1) was 25 ±4%. For the same compound, the “Effect on AC1 in words” value (human AC1) was “selectively inhibit AC1”, the “Response of Control (%) AC1” value (human AC1) was 22 ± 6% and the IC50 (human AC1) was 4.1 ± 1.1 µM. The IC50 [1] was 2.19 ± 0.454 µM, the “AC2 % Response” value (human AC2) was 177 ±3% and the “Effect on AC2 in words” value (human AC2) was “no AC2 and AC5 inhibition was observed”. The “Response of Control (%) AC2” value (human AC2) was 182 ± 50% and the “Viability (%)” value (J774A.1 cells) was 106%.
For `CC(C)OC(=O)[C@H](Cc1ccccc1)NP(=O)(COCCc1c[nH]c2c(N)ncnc12)N[C@@H](Cc1ccccc1)C(=O)OC(C)C` [Compound 15, Bis(L-phenylalanineisopropyl ester) prodrug of 9-[2-(phosphorylmethoxy)ethyl]-9-deazaadenine], the “Response of Control (%) AC5” value (human AC5) was 134 ± 15%, the “Response of Control (%) AC1” value (human AC1) was 62 ± 9% and the IC50 [1] was > 10 µM. For the same compound, the “Response of Control (%) AC2” value (human AC2) was 189 ± 27%.
`CC(C)OC(=O)[C@H](Cc1ccccc1)NP(=O)(COCCn1ncc2c(N)ncnc21)N[C@@H](Cc1ccccc1)C(=O)OC(C)C` [Compound 18a, Bis(L-phenylalanineisopropyl ester) prodrug of 9-[2-(phosphorylmethoxy)ethyl]-7-deaza-8-azaadenine] was tested, and the “Response of Control (%) AC5” value (human AC5) was 147 ± 2%, the “Response of Control (%) AC1” value (human AC1) was 71 ± 11% and the IC50 [1] was 0.016 ± 0.004 µM. For the same compound, the “Effect on AC2 in words” value (human AC2) was “potentiate”, the “Response of Control (%) AC2” value (human AC2) was 223 ± 37% and the “Viability (%)” value (J774A.1 cells) was 109%.
In the case of `CC(C)OC(=O)[C@H](Cc1ccccc1)NP(=O)(COCCc1cccc2c(N)ncnc12)N[C@@H](Cc1ccccc1)C(=O)OC(C)C` [Compound 31], the “Effect on AC5 in words” value (human AC5) is reported as “potentiate”, the “Response of Control (%) AC5” value (human AC5) is reported as 220 ± 13% and the “Effect on AC1 in words” value (human AC1) is reported as “selectively inhibit AC1”. For the same compound, the “Response of Control (%) AC1” value (human AC1) was 56 ± 6%, the IC50 [1] was > 10 µM and the “Response of Control (%) AC2” value (human AC2) was 197 ± 12%.
`Nc1ncc2c(n1)CC(c1ccco1)CC2=O` (centres unmarked) [NKY80, reference compound] was tested, and the “Response of Control (%) AC5” value (human AC5) was 54 ± 5%, the “Response of Control (%) AC1” value (human AC1) was 74 ± 10% and the “Response of Control (%) AC2” value (human AC2) was 123 ± 27%.
With `Nc1ncnc2c1ncn2C1CCCO1` (centres unmarked) [SQ22536, reference compound] the “Response of Control (%) AC5” value (human AC5) was 67 ± 12% and the “Response of Control (%) AC2” value (human AC2) was 52 ± 1%.
